From patent US20220202882A1, “EFFECT OF COMBINATION OF BIFIDOBACTERIUM AND BERBERINE ON PRE-DIABETES AND TYPE 2 DIABETES” (The Fourth Military Medical University, priority 2018, published 2022) come the findings set out here.

Structures can show the parent of a compound that is named as a salt.

This series deals with pre-diabetic and type 2 diabetes mellitus patients. The series is described as follows: Clinical trial: adverse events (safety evaluation). It counts as in vivo, human. On the procedure:
From June 2015 to October 2018, a double-blind, randomized, and parallel-controlled trial, studying the effects of the combined use of Bifidobacterium and berberine on pre-diabetic and type 2 diabetes mellitus patients, was conducted in 10 research centers in Xi'an, Yan'an and Shangluo of Shaanxi province, etc., including the First Affiliated Hospital of the Fourth Military Medical University.
The trial included an enrollment stage of 2 weeks and a treatment stage of 16 weeks. After passing the first visit 1 (see V1 in Table 1), the subjects entered the enrollment stage, i.e., 2 weeks of lifestyle intervention, followed by a re-screening (see V2 in Table 1). The subjects were subjected to a 16-week course of treatment after passing the screening. See Table 1 for the detailed screening parameters.
After the enrollment stage, the baseline data of the 300 successfully enrolled subjects were collected. Meanwhile, the subjects started to receive lifestyle guidance, and were randomly divided into four groups for 16 weeks of treatments.
1) Bifidobacterium group: the subjects were administered with Bifidobacterium capsules (Livzon Pharmaceutical Group Inc., batch no.: 20141013), 0.35 g/capsule, each capsule containing 50,000,000 viable bacteria (Bifidobacterium adolescentis DM8504), 2 capsules/time, 2 times/day, plus berberine placebo tablets (Northeast Pharma Group Shenyang First Pharma Co., Ltd., Lot no.: 20150101, containing 80.2% microcrystalline cellulose, 9.4% pregelatinized starch, 6.4% sodium carboxymethyl starch, 1% magnesium stearate, and 3% copovidone), 0.1 g/tablet, 5 tablets/time, 2 times/day.
2) Berberine group: the subjects were administered with berberine tablets (Northeast Pharma Group Shenyang First Pharma Co., Ltd., Lot no.: 130917, each tablet weighted 0.165 g and contained 0.1 g active berberine ingredient (berberine hydrochloride), with the same excipients as the placebo tablets), 5 tablets/time, 2 times/day, plus Bifidobacterium placebo capsules (Livzon Pharmaceutical Group Inc., Lot no.: 141001, specifically containing 0.348 g spray-dried lactose, and 0.002 g magnesium stearate), 0.35 g/capsule, 2 capsules/time, 2 times/day.
3) Combination Group: the subjects were administered with Bifidobacterium capsules, 0.35 g/capsule, each capsule containing 50,000,000 viable bacteria (B. adolescentis DM8504), 2 capsules/time, 2 times/day, plus berberine tablets, 0.1 g/tablet, each tablet containing 0.1 g active berberine ingredient (berberine hydrochloride), 5 tablets/time, 2 times/day.
4) Control group: the subjects were administered with Bifidobacteria placebo capsules, 0.35 g/capsule, 2 capsules/time, 2 times/day, plus berberine placebo tablets, 0.1 g/tablet, 5 tablets/time, 2 times/day.
Bifidobacterium capsules were taken after meals and berberine tablets were taken before meals.
After the sample testing was finished, 1) Chi-Squared test and t-test were used to evaluate the intergroup balance of the baseline data including the demographic characteristics and pre-treatment indicators, wherein the baseline data referred to those collected at the second visit, before the formal administration, the data collected at the first visit on the enrollment stage were used instead if the data at the second visit was lacking; 2) two-way disordered CM-CH11, Kruska-Wilcox test, etc. were used for analysis and intergroup comparison of pre- and post-treatment indicators such as fasting plasma glucose (FPG), HbA1c, plasma glucose at 2 hours post OGTT (2-h PPG), blood pressure, blood lipids, body weight and BMI; 3) adverse events and hypoglycemia events were described in terms of the type, frequency and relevance with the drugs, for safety evaluation. Software SAS 9.1.3 was used for statistical analysis with all analysis processes being programmed.
All subjects who followed the intent-to-treat principle, grouped randomly, and received the treatment trial and at least one efficacy evaluation were included in the full Analysis Set (FAS). […]

On to `COc1ccc2cc3[n+](cc2c1OC)CCc1cc2c(cc1-3)OCO2` [Berberine, berberine hydrochloride], for which, under “throughout the trial”, the Adverse event rate is 81.63%; the “Event rate of adverse events correlated with medications” value came out at 18.37%; the “Number of adverse events correlated with medications (abdominal discomfort, abnormal bowel movement)” value came to 19; the “Number of subjects with adverse events” value is listed as 40. Besides, the “Number of subjects with adverse events correlated with medications” value (throughout the trial) was found to be 9.
Bifidobacterium: for the setting “human, in vivo”, the Adverse event rate was 84%; the “Event rate of adverse events correlated with medications” value came to 21.0%; the “Number of adverse events correlated with medications (abdominal discomfort, abnormal bowel movement)” value was determined as 30; the “Number of adverse events reported” value is 203. Where the note is “human, in vivo”, the “Number of subjects with adverse events” value is 84 and the “Number of subjects with adverse events correlated with medications” value is recorded as 21.
